From patent EP1136552A1, “ATP binding cassette transporter 1 (ABC1) gene polymorphisms and uses thereof for the diagnosis and treatment of lipid disorders, cardiovascular diseases and inflammatory diseases” (Bayer Aktiengesellschaft, priority 2000, dated 2001)

How the values were obtained:
mononuclear phagocytes [1] = assay: ApoA-I mediated cholesterol efflux from cholesterol-loaded monocytes (14C-cholesterol); type: cell-based, Human; conditions: ApoA-I 10 µg/ml + 24 h pretreatment with forskolin 10 µM, percent of basal efflux, men and women
Method: Cellular Lipid Efflux. Human peripheral blood cells were isolated from lithium-heparin treated blood samples of adult, healthy volunteers. The peripheral blood mononuclear cell fraction was separated by density gradient centrifugation over Ficoll-Histopaque […] (Sigma). Cells positive for CD2, CD7, CD16, CD19 and CD56 were removed by appropriate magnetic beads (Dynal) leaving > 80% pure monocytes. Isolated monocytes were then cultured at a density of 1.5x10^5 cells/mL in polystyrene culture dishes (100x15mm Petri dish, Falcon) in a serum-free macrophage medium (Macrophage-SFM, Gibco Life Technologies) supplemented with 50ng/mL human recombinant M-CSF (R&D Systems). After an overnight incubation cells were cholesterol loaded for 24 hrs by addition of enzymatically modified LDL (E-LDL; 40 µg/ml), which was prepared as previously described (31). […] Lipids were extracted by liquid extraction according to the method of Bligh and Dyer (13). ^3H and ^14C radioactivities of the total lipid extracts were measured by liquid scintillation counting in order to distinguish between ^3H labeled phospholipids and ^14C-cholesterol. Lipid efflux was calculated as percentage of disintegrations per minute (dpm) in medium divided by the sum of dpm recovered from medium and cells. […]

mononuclear phagocytes [2] = assay: ApoA-I mediated efflux of choline containing phospholipids from monocytes (3H-choline); type: cell-based, Human; conditions: ApoA-I 10 µg/ml + 24 h pretreatment with forskolin 10 µM, percent of basal efflux, men and women
Method: Cellular Lipid Efflux. Human peripheral blood cells were isolated from lithium-heparin treated blood samples of adult, healthy volunteers. The peripheral blood mononuclear cell fraction was separated by density gradient centrifugation over Ficoll-Histopaque […] (Sigma). Cells positive for CD2, CD7, CD16, CD19 and CD56 were removed by appropriate magnetic beads (Dynal) leaving > 80% pure monocytes. Isolated monocytes were then cultured at a density of 1.5x10^5 cells/mL in polystyrene culture dishes (100x15mm Petri dish, Falcon) in a serum-free macrophage medium (Macrophage-SFM, Gibco Life Technologies) supplemented with 50ng/mL human recombinant M-CSF (R&D Systems). After an overnight incubation cells were cholesterol loaded for 24 hrs by addition of enzymatically modified LDL (E-LDL; 40 µg/ml), which was prepared as previously described (31). The incubation medium was further supplemented with ^14C-cholesterol (1.5 µCi/ml) and ^3H-choline (10µCi/ml) in order to label cellular cholesterol and choline containing phospholipids. In a subset of experiments cells were stimulated with 10 µM forskolin during the labeling period. After 24 hrs monocytes were washed and incubated for 17 hrs with or without 10 µg/ml ApoA-I (Sigma) in macrophage medium containing 0.1 % bovine serum albumin and 50ng/mL M-CSF. After incubation the media were removed and centrifuged at 800 x g to precipitate any detached cells. Cells were lysed in 0.2% SDS. Lipids were extracted by liquid extraction according to the method of Bligh and Dyer (13). ^3H and ^14C radioactivities of the total lipid extracts were measured by liquid scintillation counting in order to distinguish between ^3H labeled phospholipids and ^14C-cholesterol. Lipid efflux was calculated as percentage of disintegrations per minute (dpm) in medium divided by the sum of dpm recovered from medium and cells. The ApoA-I specific efflux is expressed a percent of basal unstimulated efflux observed in serum-free macrophage medium without ApoA-I. Statistical Analysis. […]

IL-1β = assay: Inhibition of pro-IL-1β processing and IL-1β release; type: cell-based
neutral sphingomyelinase = assay: Ceramide formation from sphingomyelin; type: cell-based
human fibroblasts = assay: G2-phase cell cycle arrest in fibroblasts; type: cell-based

SMILES: C=C[C@@]1(C)CC(=O)[C@]2(O)[C@@]3(C)[C@@H](O)CCC(C)(C)[C@@H]3[C@H](O)[C@H](OC(C)=O)[C@@]2(C)O1 [forskolin]
- Cholesterol efflux (mononuclear phagocytes [1]; 596A/A): 126.7 ± 37.4%
- Cholesterol efflux (mononuclear phagocytes [1]; wt/wt 596G/G, 2589A/A): 121.8 ± 16.4%
- Phospholipid efflux (mononuclear phagocytes [2]; 596A/A): 136.7 ± 12.8%
- Phospholipid efflux (mononuclear phagocytes [2]; 2589G/G): 124.5 ± 25.8%
- Phospholipid efflux (mononuclear phagocytes [2]; wt/wt 596G/G, 2589A/A): 135.4 ± 20.2%

SMILES: COc1ccc(Cl)cc1C(=O)NCCc1ccc(S(=O)(=O)NC(=O)NC2CCCCC2)cc1 [glyburide]
- Caspase I mediated processing of pro-IL-1β and release of mature IL-1β (IL-1β): inhibits
- ceramide formation from sphingomyelin mediated by neutral sphingomyelinase (neutral sphingomyelinase): inhibits
- G2-phase cell cycle arrest (human fibroblasts): releases human fibroblasts from G2-phase cell cycle arrest
